{"source": "paper PMC9298352", "about": "“Design, Synthesis and Structural Analysis of Glucocerebrosidase Imaging Agents” (Chemistry (Weinheim an Der Bergstrasse, Germany), 2021)", "key": {"rhGBA": {"target": "T1, rhGBA (Homo sapiens, UniProt P04062)", "T1 construct": "made in house; host or cells: insect-baculovirus expression vector system (BEVS)", "T1 sequence (P04062 40-536)": "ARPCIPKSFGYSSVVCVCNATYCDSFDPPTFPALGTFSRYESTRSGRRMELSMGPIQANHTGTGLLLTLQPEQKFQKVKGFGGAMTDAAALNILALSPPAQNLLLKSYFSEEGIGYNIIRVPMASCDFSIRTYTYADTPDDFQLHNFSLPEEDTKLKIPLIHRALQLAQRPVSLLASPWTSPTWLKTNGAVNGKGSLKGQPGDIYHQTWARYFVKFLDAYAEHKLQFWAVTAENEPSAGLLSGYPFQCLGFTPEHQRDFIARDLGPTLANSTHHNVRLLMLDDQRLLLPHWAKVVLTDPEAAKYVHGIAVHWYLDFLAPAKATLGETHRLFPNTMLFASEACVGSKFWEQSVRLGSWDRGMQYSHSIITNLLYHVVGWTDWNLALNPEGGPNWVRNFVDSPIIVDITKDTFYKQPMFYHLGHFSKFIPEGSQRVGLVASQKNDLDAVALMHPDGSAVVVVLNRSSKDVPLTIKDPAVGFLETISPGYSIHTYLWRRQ", "assay": "Time-dependent labelling of rhGBA with galacto-ABP 7 and gluco-ABP 8 (SDS-PAGE, Cy5 fluorescence)", "type": "biochemical", "details": "rhGBA 700 nM, ABP 150 nM", "method": "To rapidly investigate for cross‐reactivity with galacto‐configured cyclophellitol aziridines, time‐dependent labelling assays of rhGBA with galacto‐configured Cy5‐tagged aziridine ABP 7 were performed (Figure 3).\nFigure 3 Time dependent labelling of rhGBA (700 nM) by Cy5‐tagged galacto‐ABP 7 (150 nM) after 2, 5, 10, 30 and 60 mins showing that labelling reaches saturation at 30 mins. In comparison, labelling by Cy5‐tagged gluco‐ABP 8 (150 nM) reaches saturation in 2mins. […] ABP labelled rhGBA (60 kDa) visualized by Cy5 fluorescent readout.\nrhGBA produced in BEVS[58] was prepared at 700 nM in 150 mM McIlvaine buffer pH 5.2 (containing 0.1 % (v/v) Triton X‐100 and 0.2 % (w/v) sodium taurocholate) and ABP 7 or ABP 8 were added to 150 nM. The reactions were incubated at 37 °C and aliquots were taken at 2, 5, 10, 30 and 60 mins. The aliquots were immediately denatured with Laemmli (x3) sample buffer by heating at 95 °C for 5 minutes. The samples were resolved by electrophoresis in 10 % SDS‐PAGE gels, running at 200 V for ∼50 minutes. Wet slab gels were scanned on fluorescence using an AmershamTyphoon 5 Imager (GE Healthcare) with λEX 635 nm; λEM >665 nm."}, "GBA": {"test_system": "GBA", "details": "read-out: apparent IC50 for GBA; cited from earlier work"}}, "data": [{"smiles": "C[N+]1=C(C=CC=CC=C2N(CCCCCC(=O)NCc3ccc(C4=C5C(C=NN4)C4CC(C(=O)NCCCCCCN6C7C(O)C(O)C(O)C(CO)C76)C5C4)cc3)c3ccccc3C2(C)C)C(C)(C)c2ccccc21", "note": "(stereo not shown) [ABP 7]", "values": [{"measurement": "time to saturation of rhGBA labelling (Figure 3 legend)", "setting": "rhGBA", "result": 30, "unit": "min"}, {"measurement": "time to saturation of rhGBA labelling", "setting": "rhGBA; pH 5.2, 37 °C", "result": "≤ 30", "unit": "min"}, {"measurement": "time within which rhGBA is labelled", "setting": "rhGBA; pH 5.2, 37 °C", "result": "≤ 2", "unit": "min"}]}, {"smiles": "OC[C@@H]1[C@@H](O)[C@H](O)[C@@H](O)[C@@H]2N[C@H]12", "note": "[compound 2, cyclophellitol aziridine]", "values": [{"measurement": "IC50", "setting": "GBA", "result": 0.5, "unit": "µM"}]}]}
